{
  "source": "paper PMC5823406",
  "about": "“Vehicle development, pharmacokinetics and toxicity of the anti-invasive agent 4-fluoro-3’,4’,5’-trimethoxychalcone in rodents” (PLoS ONE, 2018)",
  "key": {"[1]": {"experiment": "LogD, partition coefficient n-octanol/PBS", "type": "physicochemical", "details": "pH 7.4, 100 μM", "description": "(§1) Table 3 In vitro physicochemical, stability and metabolism data. | column: Value"}, "CYP 1A2": {"biological_target": "T1, CYP 1A2 (Homo sapiens, UniProt P05177)", "T1 sequence (P05177 1-516)": "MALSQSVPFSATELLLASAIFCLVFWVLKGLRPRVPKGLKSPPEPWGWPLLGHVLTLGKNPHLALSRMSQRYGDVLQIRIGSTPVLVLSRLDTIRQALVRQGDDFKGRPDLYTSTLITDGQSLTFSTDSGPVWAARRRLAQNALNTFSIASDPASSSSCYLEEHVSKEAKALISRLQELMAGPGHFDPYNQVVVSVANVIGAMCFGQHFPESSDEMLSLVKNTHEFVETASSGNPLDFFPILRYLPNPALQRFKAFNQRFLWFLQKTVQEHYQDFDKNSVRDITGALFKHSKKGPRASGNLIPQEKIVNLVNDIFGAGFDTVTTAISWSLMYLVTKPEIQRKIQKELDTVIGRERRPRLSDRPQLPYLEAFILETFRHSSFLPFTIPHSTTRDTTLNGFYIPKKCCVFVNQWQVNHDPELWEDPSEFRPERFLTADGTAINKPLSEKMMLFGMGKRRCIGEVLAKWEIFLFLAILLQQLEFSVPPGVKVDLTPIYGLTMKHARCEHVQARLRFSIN", "experiment": "CYP inhibition 1A2 (CEC substrate)", "type": "in vitro ADME", "details": "10 μM", "description": "as §1"}},
  "data": [
    {"smiles": "COc1cc(C(=O)/C=C/c2ccc(F)cc2)cc(OC)c1OC", "note": "[C16, 4-fluoro-3’,4’,5’-trimethoxychalcone]", "values": [
      {"measurement": "LogD", "setting": "[1]", "result": 3.85},
      {"measurement": "CYP inhibition 1A2 (CEC substrate)", "setting": "CYP 1A2", "result": "36 % inhibition of control"}
    ]}
  ]
}
